Consider 10 substances from US20260209270A1, “Synthetic Peptide And Construct” (TOAGOSEI CO., LTD., priority 2022, published 2026).

FAM = 5(6)-carboxyfluorescein

The test has as its system NSC-34 cells. The test can be described thus: Evaluation of cell membrane permeability by flow cytometry (MFI of FAM fluorescence). Format: cell-based, mouse. To be noted: for MFI: NSC-34 cells; for value of MFI compared with Reference Example 1 (FAM alone): 20 μM. As to the method:
As a culture medium of the NSC-34 cell, 10% fetal bovine serum (FBS)-containing Dulbecco's modified Eagle's medium (DMEM (Cat No. 044-29765, manufactured by FUJIFILM Wako Pure Chemical Corporation)) was used. The samples 1 to 6 were each dissolved in dimethyl sulfoxide (DMSO) to prepare sample solutions 1 to 6 with a sample concentration of 4 mM. Then, the sample solutions were diluted in the culture medium to prepare 40 μM sample solutions 1 to 6.
The NSC-34 cell was suspended in the culture medium to prepare a cell suspension of 2×10^5 cells/mL. The cell suspension was added by 1 mL to a well of a commercially available six-hole (well) plate (manufactured by AGC TECHNO GLASS Co., Ltd.) so as to seed the NSC-34 cell to be 2× 10^5 cells/well. […] After that, the six-well plate was left at rest in a cell culture apparatus, and incubated for 20 hours at 37° C. under a 5% CO2 condition.
After the 20-hour incubation, the culture supernatant was removed from the well and the cells in the well were cleaned twice with 1 mL of PBS. Next, 100 μL of the 0.25% trypsin/EDTA solution was added to the well and the incubation was performed for three minutes at 37° C. After the incubation, 900 μL of the culture medium was added to the well to deactivate the trypsin. Subsequently, the cell suspension in the well was transferred to a tube and the cells were collected. This tube was subjected to five-minute centrifugal separation at 4° C. under a condition of 210×g. After the centrifugal separation, the supernatant was removed and the precipitate (cell pellet) was suspended (cleaned) with 1 mL of PBS, which was followed by the centrifugal separation under the same condition as that described above. After this operation was repeated twice, the supernatant was removed and thus, the cells (cell pellet) cultured in the culture medium containing the sample 1 were obtained.
Regarding the obtained cells (cell pellet), the cell membrane permeability of the sample 1 was analyzed using a flow cytometer. As the flow cytometer, On-Chip Flowcytometer (manufactured by On-Chip Biotechnologies Co., LTD.) was used.
For such an analysis, the obtained cell pellet was suspended with 100 μL of on-chip T buffer to prepare a cell suspension for analysis.
Using the aforementioned flow cytometer, gating based on forward scatter (FSC) and side scatter (SSC) was performed to set a gate about a cell group to be analyzed, and the fluorescence intensity was measured about the cell group in this gate. Note that the number of cells of the cell group was set to at least 10000 or more in the analysis. The fluorescence intensity was measured using a fluorescence detector FL2 of the flow cytometer (optimum detection wavelength around 543 nm) capable of detecting the fluorescence wavelength of FAM. Regarding this measurement result, the analysis was performed using commercially available analysis software “FlowJo” (manufactured by TreeStar) to obtain mean fluorescence intensity (MFI) of the cell group to be measured. […]
Background: A flow cytometer gives signals particle by particle.

The mark [1] stands for this setting: Test 1, sample/FAM concentration 20 μM in culture medium, 20 hours incubation at 37° C., detector FL2.
Setting [2] is: Test 2, sample/FAM concentration 25 μM in culture medium, otherwise similar to Test 1.

Take “5(6)-carboxyfluorescein [Reference Example 1, reference compound]”: the MFI runs as follows: under setting [1], 10.9; under setting [2], 13.1. Turning to Ac-PD-FAM [Example 5], the “value of MFI compared with Reference Example 1 (FAM alone)” value (Test 1) is “lower”. The same substance showed an MFI under setting [1] of 7.8. In turn, Ac-PDPD-FAM [Example 1] had an MFI under setting [1] of 15. With “Ac-PDPDPDPDPDPDG-FAM (Ac-PDPDPDPDPDPDG-{FAM}) [Example 7, construct: N-terminally acetylated peptide 7 bonded to FAM]”, the MFI under setting [2] is 27.5. The substance Ac-PDPEG-FAM [Example 3] showed an MFI under setting [1] of 18.9. Take “Ac-PDPEPDPEPDPEG-FAM (Ac-PDPEPDPEPDPEG-{FAM}) [Example 9, construct: N-terminally acetylated peptide 9 bonded to FAM]”: the MFI under setting [2] stood at 25.1. For the substance Ac-PE-FAM [Example 6], the “value of MFI compared with Reference Example 1 (FAM alone)” value (Test 1) is “lower”. Under setting [1], this substance showed an MFI of 7.4. Under setting [1], Ac-PEPDG-FAM [Example 4] returned an MFI of 19.9.

Ac-PEPE-FAM [Example 2] gave an MFI under setting [1] of 16.2. Regarding “Ac-PEPEPEPEPEPEG-FAM (Ac-PEPEPEPEPEPEG-{FAM}) [Example 8, construct: N-terminally acetylated peptide 8 bonded to FAM]”, the MFI under setting [2] was 29.3.
